# From patent US20090036448A1, “PYRIMIDINE DERIVATIVES AND METHODS OF TREATMENT RELATED TO THE USE THEREOF” (TAISHO PHARMECUTICAL CO., LTD., priority 2004, published 2009)
# Counter-ions that a name gives are not always drawn.
# Target: T1, MCH receptor (Homo sapiens, UniProt Q99705)
# Assay: Receptor binding assay with Radiolabelled MCH Ligand
# Set-up: expressed in transfected cells; host or cells: 293 cells (human kidney, ATCC), transient transfection; crude membranes
# Details: class by percent of control at 10^-7 M or IC50
# Procedure, shortened: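 Membranes from 293 cells transiently transfected with human MCH receptor competed test compounds against a radiolabelled MCH ligand in Tris-HCl pH 7.4 with MgCl2 and EDTA for 60–120 min at room temperature. Filtration and scintillation counting followed, with cold MCH defining nonspecific binding. IC50 came from logit-log plots of %B/B0, and Ki from the Cheng-Prusoff equation.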
# T1 sequence (Q99705 whole entry): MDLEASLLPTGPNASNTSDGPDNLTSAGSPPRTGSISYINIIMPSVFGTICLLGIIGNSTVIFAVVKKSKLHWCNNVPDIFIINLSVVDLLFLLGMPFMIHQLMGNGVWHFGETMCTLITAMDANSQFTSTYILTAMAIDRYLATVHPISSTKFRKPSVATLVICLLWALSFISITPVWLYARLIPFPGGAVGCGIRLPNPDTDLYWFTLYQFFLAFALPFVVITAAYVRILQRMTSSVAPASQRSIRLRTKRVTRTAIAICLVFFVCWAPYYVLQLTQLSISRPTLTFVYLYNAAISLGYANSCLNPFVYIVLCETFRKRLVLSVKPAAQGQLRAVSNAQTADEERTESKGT
row,Structure (SMILES),class
1,Cc1nc(N[C@H]2CC[C@@H](NC(=O)c3ccc(N(C)C)cc3)CC2)cc(N(C)C)n1 [compound 217],3 (Class 3: The value of percent of control at 10^−7 M was more than 60% or the value of IC50 was more than 200 nM.)
2,Cc1nc(N[C@H]2CC[C@@H](NC(=O)c3nn(-c4ccccc4)nc3C)CC2)cc(N(C)C)n1 [compound 228],3 (Class 3: The value of percent of control at 10^−7 M was more than 60% or the value of IC50 was more than 200 nM.)
3,Cc1nc(N[C@H]2CC[C@@H](NCc3nn(-c4ccccc4)nc3C)CC2)cc(N(C)C)n1 [compound 376],3 (Class 3: The value of percent of control at 10^−7 M was more than 60% or the value of IC50 was more than 200 nM.)
4,Cc1cc(C)c(S(=O)(=O)N[C@H]2CC[C@@H](Nc3cc(N(C)C)nc(C)n3)CC2)c(C)c1 [compound 486],3 (Class 3: The value of percent of control at 10^−7 M was more than 60% or the value of IC50 was more than 200 nM.)
5,CCCCCCCCOC(=O)N[C@H]1CC[C@@H](Nc2cc(N(C)C)nc(C)n2)CC1 [compound 458],3 (Class 3: The value of percent of control at 10^−7 M was more than 60% or the value of IC50 was more than 200 nM.)
6,Cc1nc(N[C@H]2CC[C@@H](NC(=O)c3cc(C)n(Cc4cccs4)c3C)CC2)cc(N(C)C)n1 [compound 283],3 (Class 3: The value of percent of control at 10^−7 M was more than 60% or the value of IC50 was more than 200 nM.)
7,"CCSC(C(=O)N[C@H]1CC[C@@H](Nc2cc(N(C)C)nc(C)n2)CC1)(c1ccccc1)c1ccccc1 [compound 306, N-(cis-4-{[6-(dimethylamino)-2-methylpyrimidin-4-yl]amino}cyclohexyl)-2-(ethylthio)-2,2-diphenylacetamide]",1 (Class 1: The value of percent of control at 10^−7 M was less than 40% or the value of IC50 was less than 50 nM.)
8,Cc1nc(N[C@H]2CC[C@@H](NS(=O)(=O)c3cc(Cl)c(Oc4ccc([N+](=O)[O-])cc4Cl)c(Cl)c3)CC2)cc(N(C)C)n1 [compound 495],3 (Class 3: The value of percent of control at 10^−7 M was more than 60% or the value of IC50 was more than 200 nM.)
9,Cc1nc(N[C@H]2CC[C@@H](NC(=O)C3(c4ccc(Cl)cc4)CCCC3)CC2)cc(N(C)C)n1 [compound 214],1 (Class 1: The value of percent of control at 10^−7 M was less than 40% or the value of IC50 was less than 50 nM.)
10,Cc1nc(N[C@H]2CC[C@@H](NC(=O)Cc3ccccc3C(=O)Nc3ccc(OC(F)(F)F)cc3)CC2)cc(N(C)C)n1 [compound 297],3 (Class 3: The value of percent of control at 10^−7 M was more than 60% or the value of IC50 was more than 200 nM.)
11,Cc1nc(N[C@H]2CC[C@@H](NCC3C[C@H]3c3ccccc3)CC2)cc(N(C)C)n1 (some centres unmarked) [compound 383],3 (Class 3: The value of percent of control at 10^−7 M was more than 60% or the value of IC50 was more than 200 nM.)
12,Cc1nc(N[C@H]2CC[C@@H](NCCCc3ccccc3)CC2)cc(N(C)C)n1 [compound 403],3 (Class 3: The value of percent of control at 10^−7 M was more than 60% or the value of IC50 was more than 200 nM.)
13,Cc1nc(N[C@H]2CC[C@@H](NC(=O)Nc3ccc(Br)cc3C)CC2)cc(N(C)C)n1 [compound 420],3 (Class 3: The value of percent of control at 10^−7 M was more than 60% or the value of IC50 was more than 200 nM.)
14,Cc1nc(N[C@H]2CC[C@@H](NC(=O)CC(C)S(=O)(=O)c3ccc(Cl)cc3)CC2)cc(N(C)C)n1 (relative stereo) [compound 281],3 (Class 3: The value of percent of control at 10^−7 M was more than 60% or the value of IC50 was more than 200 nM.)
15,CCCCCCCCCc1ccc(C(=O)N[C@H]2CC[C@@H](Nc3cc(N(C)C)nc(C)n3)CC2)cc1 [compound 254],3 (Class 3: The value of percent of control at 10^−7 M was more than 60% or the value of IC50 was more than 200 nM.)
16,Cc1nc(N[C@H]2CC[C@@H](NCc3ccc(OC(F)(F)F)cc3)CC2)cc(N(C)C)n1 [compound 393],3 (Class 3: The value of percent of control at 10^−7 M was more than 60% or the value of IC50 was more than 200 nM.)
17,Cc1nc(N[C@H]2CC[C@@H](NC(=O)c3ccccc3C(=O)N[C@@H](C)c3ccccc3)CC2)cc(N(C)C)n1 [compound 328],3 (Class 3: The value of percent of control at 10^−7 M was more than 60% or the value of IC50 was more than 200 nM.)
18,Cc1nc(N[C@H]2CC[C@@H](NC(=O)Cc3ccccc3C(=O)Nc3ccc(F)cc3F)CC2)cc(N(C)C)n1 [compound 294],3 (Class 3: The value of percent of control at 10^−7 M was more than 60% or the value of IC50 was more than 200 nM.)
19,Cc1nc(N[C@H]2CC[C@@H](NC(=O)c3ccccc3C(=O)Nc3cccc4ccccc34)CC2)cc(N(C)C)n1 [compound 332],3 (Class 3: The value of percent of control at 10^−7 M was more than 60% or the value of IC50 was more than 200 nM.)
20,COc1ccc(CC(=O)N[C@H]2CC[C@@H](Nc3cc(N(C)C)nc(C)n3)CC2)cc1OC [compound 245],3 (Class 3: The value of percent of control at 10^−7 M was more than 60% or the value of IC50 was more than 200 nM.)
21,Cc1nc(N[C@H]2CC[C@@H](NCc3cccc(C(F)(F)F)c3)CC2)cc(N(C)C)n1 [compound 386],3 (Class 3: The value of percent of control at 10^−7 M was more than 60% or the value of IC50 was more than 200 nM.)
22,CCOC(=O)c1c(S(=O)(=O)N[C@H]2CC[C@@H](Nc3cc(N(C)C)nc(C)n3)CC2)c(-c2ccc(Cl)cc2)n(-c2ccccc2)c1C [compound 514],3 (Class 3: The value of percent of control at 10^−7 M was more than 60% or the value of IC50 was more than 200 nM.)

# Target: T1, MCH receptor
# Assay: FLIPR/FDSS6000 functional assay: intracellular Ca2+ changes evoked by MCH
# Type: cell-based
# Details: class by percent of control at 10^−7 M or by IC50; antagonist activity, 50 nM of MCH; read-out: class
# Source text: Subsequently, a functional based assay was used to confirm the lead hits, referred to as FLIPR™ (the Fluorometric Imaging Plate Reader) and FDSS6000™ (Functional Drug Screening System). This assay utilized a non-endogenous, constitutively active version of the MCH receptor.
# The FLIPR and FDSS assays are able to detect intracellular Ca^2+ concentration in cells, which can be utilized to assess receptor activation and determine whether a candidate compound is an, for example, antagonist, inverse agonist or agonist to a Gq-coupled receptor. The concentration of free Ca^2+ in the cytosol of any cell is extremely low, whereas its concentration in the extracellular fluid and endoplasmic reticulum (ER) is very high. Thus, there is a large gradient tending to drive Ca^2+ into the cytosol across both the plasma membrane and ER. The FLIPR™ and FDSS6000™ systems (Molecular Devices Corporation, HAMAMATSU Photonics K.K.) are designed to perform functional cell-based assays, such as the measurement of intracellular calcium for high-throughput screening. The measurement of fluorescent is associated with calcium release upon activation of the Gq-coupled receptors.
# Fluorometric Imaging Plate Reader system was used to allow for rapid, kinetic measurements of intracellular fluorescence in 96 well microplates (or 384 well microplates). Simultaneous measurements of fluorescence in all wells can be made by FLIPR or FDSS6000™ every second with high sensitivity and precision. These systems are ideal for measuring cell-based functional assays such as monitoring the intracellular calcium fluxes that occur within seconds after activation of the Gq coupled receptor.
# Briefly, the cells are seeded into 96 well at 5.5×10^4 cells/well with complete culture media (Dulbecco's Modified Eagle Medium with 10% fetal bovine serum, 2 mM L-glutamine, 1 mM sodium pyruvate and 0.5 mg/mL G418, pH 7.4) for the assay next day. On the day of assay, the media is removed and the cells are incubated with 100 μl of loading buffer (4 μM Fluo-4-AM in complete culture media containing 2.5 mM Probenicid, 0.5 mg/ml and 0.2% bovine serum albumin) in 5% CO2 incubator at 37° C. for 1 hr. The loading buffer is removed, and the cells are washed with wash buffer (Hank's Balanced Salt Solution containing 2.5 mM Probenicid, 20 mM HEPES, 0.5 mg/mL and 0.2% bovine serum albumin, pH 7.4). One hundred fifty μl of wash buffer containing various concentrations of test compound is added to the cells, and the cells are incubated in 5% CO2 incubator at 37° C. for 30 min. Fifty μl of wash buffer containing various concentration of MCH are added to each well, and transient changes in [Ca^2+]i evoked by MCH are monitored using the FLIPR or FDSS in 96 well plates at Ex. 488 nm and Em. 530 nm for 290 second. When antagonist activity of compound is tested, 50 nM of MCH is used.
# Use of FLIPR™ and FDSS6000™ can be accomplished by following manufacturer's instruction (Molecular Device Corporation and HAMAMATSU Photonics K.K.).
row,Structure (SMILES),IC50 [nM]
1,"Cc1nc(N[C@H]2CC[C@@H](NC(=O)c3ccccc3F)CC2)cc(N(C)C)n1 [Example 22, N-(cis-4-{[6-(Dimethylamino)-2-methylpyrimidin-4-yl]amino}cyclohexyl)-2-fluorobenzamide hydrochloride]",> 200
2,"CN(C)c1cc(N[C@H]2CC[C@@H](NC(=O)c3ccc(F)c(Cl)c3)CC2)nc(Cc2ccccc2)n1 [Example 179, N-(cis-4-{[2-Benzyl-6-(dimethylamino)pyrimidin-4-yl]amino}cyclohexyl)-3-chloro-4-fluorobenzamide hydrochloride]",< 50
3,"CNc1cc(N[C@H]2CC[C@@H](NC(=O)c3ccc(F)c(F)c3)CC2)nc(C)n1 [Example 30, 3,4-Difluoro-N-(cis-4-{[2-methyl-6-(methylamino)pyrimidin-4-yl]amino}cyclohexyl)-benzamide hydrochloride]",> 200
4,"CN(C)c1cc(N[C@H]2CC[C@@H](NC(=O)c3ccc(F)c(Cl)c3)CC2)nc(C(F)(F)F)n1 [Example 47, 3-Chloro-N-(cis-4-{[6-(dimethylamino)-2-(trifluoromethyl)pyrimidin-4-yl]amino}cyclohexyl)-4-fluorobenzamide hydrochloride]",> 200
5,"Cn1ccc2c(N[C@H]3CC[C@@H](NC(=O)c4ccc(F)c(Cl)c4)CC3)ncnc21 [Example 187, 3-Chloro-4-fluoro-N-{cis-4-[(7-methyl-7H-pyrrolo[2,3-d]pyrimidin-4-yl)amino]cyclohexyl}-benzamide hydrochloride]",50 to 200
6,"CCN(C)c1cc(N[C@H]2CC[C@@H](NC(=O)c3cc(F)c(F)c(F)c3)CC2)nc(C)n1 [Example 176, N-[cis-4-({6-[Ethyl(methyl)amino]-2-methylpyrimidin-4-yl}amino)cyclohexyl]-3,4,5-trifluorobenzamide hydrochloride]",> 200
7,"CN(C)c1cc(N[C@H]2CC[C@@H](NC(=O)c3ccc(F)c(F)c3)CC2)nc(N(C)C)n1 [Example 33, N-(cis-4-{[2,6-bis(Dimethylamino)pyrimidin-4-yl]amino}cyclohexyl)-3,4-difluorobenzamide hydrochloride]",50 to 200
